Patent publication EP4273147A1, “SUBSTITUTED SPIROLACTAMS, SALTS THEREOF AND THEIR USE AS HERBICIDALLY ACTIVE SUBSTANCES” (Bayer Aktiengesellschaft, priority 2022, dated 2023)

Columns and labels:
[1] = tested on: ECHCG; assay: Herbicidal pre-emergence action, section C (Table C6); type: in vivo, Echinochloa crus-galli; conditions: application rate 80 g/ha; visual grading after ca. 3 weeks
[2] = tested on: ORYZA; assay: Post-emergence effects on crop plants (Table F3); type: in vivo, Oryza sativa; conditions: crop plant ORYZA
From the text: (§1) 2 to 3 weeks after sowing, the test plants were sprayed in the single-leaf stage.

[3] = tested on: ALOMY; assay: Herbicidal pre-emergence action (Table A9); type: in vivo, Alopecurus myosuroides; conditions: application rate 1280 g/ha; visual grading after ca. 3 weeks
How it was run: (§2)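 Pots: sandy loam. Sowing: one mono- and one dicot weed species together per pot. Seeds covered with soil.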

[4] = tested on: SETVI; assay: Herbicidal pre-emergence action (Table A5); type: in vivo, Setaria viridis; conditions: visual grading after ca. 3 weeks
How it was run: as §2

[5] = tested on: STEME; assay: Herbicidal pre-emergence action (Table A6); type: in vivo, Stellaria media; conditions: visual grading after ca. 3 weeks
How it was run: as §2

[6] = tested on: MATIN; assay: Herbicidal pre-emergence action (Table A4); type: in vivo, Matricaria inodora; conditions: visual grading after ca. 3 weeks
How it was run: as §2

[7] = tested on: VERPE; assay: Herbicidal pre-emergence action (Table A11); type: in vivo, Veronica persica; conditions: visual grading after ca. 3 weeks
How it was run: as §2

[8] = tested on: MATIN; assay: Herbicidal pre-emergence action, section C (Table C8); type: in vivo, Matricaria inodora; conditions: application rate 320 g/ha; visual grading after ca. 3 weeks
[9] = tested on: LOLRI; assay: Herbicidal post-emergence action (Table B5); type: in vivo, Lolium rigidum; conditions: application rate 1280 g/ha; rated visually after about 3 weeks
How it was run: (§3)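 Each pot held sandy loam sown with a single mono- or dicot weed species, grown under controlled greenhouse conditions. Test plants were sprayed at the one-leaf stage, and after about 3 weeks of further growth the percentage activity relative to untreated plants was rated visually.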

[10] = tested on: ALOMY; assay: Herbicidal post-emergence action (Table B2); type: in vivo, Alopecurus myosuroides; conditions: application rate 320 g/ha; rated visually after about 3 weeks
How it was run: as §3

[11] = tested on: VIOTR; assay: Herbicidal pre-emergence action, section C (Table C12); type: in vivo, Viola tricolor; conditions: visual grading after ca. 3 weeks
[12] = tested on: AMARE; assay: Herbicidal post-emergence action (Table B11); type: in vivo, Amaranthus retroflexus; conditions: application rate 1280 g/ha
How it was run: as §3

[13] = tested on: ECHCG; assay: Herbicidal pre-emergence action (Table A2); type: in vivo, Echinochloa crus-galli; conditions: application rate 320 g/ha; visual grading after ca. 3 weeks
How it was run: as §2

[14] = tested on: VERPE; assay: Herbicidal post-emergence action, section E (Table E9); type: in vivo, Veronica persica; conditions: application rate 320 g/ha; assessed visually after ca. 3 weeks
From the text: as §1

[15] = tested on: VERPE; assay: Herbicidal pre-emergence action, section C (Table C11); type: in vivo, Veronica persica; conditions: application rate 320 g/ha; visual grading after ca. 3 weeks
From the text: (§4) Seeds of mono- and dicotyledonous weed plants and crop plants were sown, in plastic or organic planting pots, in sandy loam and covered with soil. The compounds according to the invention, formulated in the form of wettable powders (WP) or as emulsifiable concentrates (EC), were applied to the surface of the covering soil as aqueous suspension or emulsion, with the addition of 0.5% of an additive, at an application rate of 600 1 of water/ha (converted). Following treatment, the pots were placed in a greenhouse and kept under optimum growth conditions for the test plants.

[16] = tested on: SETVI; assay: Herbicidal pre-emergence action, section C (Table C10); type: in vivo, Setaria viridis; conditions: visual grading after ca. 3 weeks
[17] = tested on: ZEAMX; assay: Post-emergence effects on crop plants (Table F1); type: in vivo, Zea mays; conditions: crop plant ZEAMX
From the text: as §1

[18] = tested on: LOLRI; assay: Herbicidal pre-emergence action, section C (Table C7); type: in vivo, Lolium rigidum; conditions: application rate 320 g/ha; visual grading after ca. 3 weeks
[19] = tested on: ABUTH; assay: Herbicidal post-emergence action (Table B1); type: in vivo, Abutilon theophrasti; conditions: application rate 320 g/ha; treated at one-leaf stage; rated visually after about 3 weeks vs untreated controls (100% = plants have died, 0% = like control plants)
How it was run: as §3

[20] = tested on: KCHSC; assay: Herbicidal post-emergence action (Table B4); type: in vivo, Kochia scoparia; conditions: application rate 1280 g/ha; rated visually after about 3 weeks
How it was run: as §3

[21] = tested on: SETVI; assay: Herbicidal post-emergence action (Table B8); type: in vivo, Setaria viridis; conditions: application rate 1280 g/ha
How it was run: as §3

[22] = tested on: POAAN; assay: Herbicidal pre-emergence action (Table A7); type: in vivo, Poa annua; conditions: application rate 320 g/ha, visual grading after ca. 3 weeks
How it was run: as §2

[23] = tested on: MATIN; assay: Herbicidal post-emergence action (Table B6); type: in vivo, Matricaria inodora; conditions: application rate 320 g/ha; rated visually after about 3 weeks
How it was run: as §3

[24] = tested on: STEME; assay: Herbicidal post-emergence action (Table B9); type: in vivo, Stellaria media; conditions: application rate 1280 g/ha
How it was run: as §3

[25] = tested on: LOLRI; assay: Herbicidal post-emergence action, section E (Table E6); type: in vivo, Lolium rigidum; conditions: application rate 320 g/ha; assessed visually after ca. 3 weeks
From the text: as §1

[26] = tested on: ABUTH; assay: Herbicidal pre-emergence action (Table A1); type: in vivo, Abutilon theophrasti; conditions: application rate 1280 g/ha; visual grading after ca. 3 weeks vs untreated controls (100% = plants have died off, 0% = as control plants)
How it was run: as §2

[27] = tested on: TRZAS; assay: Post-emergence effects on crop plants (Table F2); type: in vivo, Triticum aestivum; conditions: crop plant TRZAS
From the text: as §1

[28] = tested on: DIGSA; assay: Herbicidal pre-emergence action, section C (Table C5); type: in vivo, Digitaria sanguinalis; conditions: visual grading after ca. 3 weeks
[29] = tested on: POAAN; assay: Herbicidal post-emergence action (Table B7); type: in vivo, Poa annua
How it was run: as §3

[30] = tested on: ECHCG; assay: Herbicidal post-emergence action, section E (Table E5); type: in vivo, Echinochloa crus-galli; conditions: application rate 320 g/ha; assessed visually after ca. 3 weeks
From the text: as §1

[31] = tested on: LOLRI; assay: Herbicidal pre-emergence action (Table A3); type: in vivo, Lolium rigidum; conditions: application rate 320 g/ha, visual grading after ca. 3 weeks
How it was run: as §2

[32] = tested on: ALOMY; assay: Herbicidal pre-emergence action, section C (Table C2); type: in vivo, Alopecurus myosuroides; conditions: application rate 320 g/ha; visual grading after ca. 3 weeks
[33] = tested on: BRSNW; assay: Post-emergence effects on crop plants (Table F5); type: in vivo, Brassica napus; conditions: application rate 320 g/ha, crop plant BRSNW
From the text: as §1

[34] = tested on: DIGSA; assay: Herbicidal pre-emergence action (Table A12); type: in vivo, Digitaria sanguinalis; conditions: application rate 320 g/ha; visual grading after ca. 3 weeks
How it was run: as §2

[35] = tested on: VERPE; assay: Herbicidal post-emergence action (Table B10); type: in vivo, Veronica persica; conditions: application rate 320 g/ha
How it was run: as §3

[36] = tested on: ALOMY; assay: Herbicidal post-emergence action, section E (Table E2); type: in vivo, Alopecurus myosuroides; conditions: application rate 320 g/ha; assessed visually after ca. 3 weeks
From the text: as §1

[37] = tested on: SETVI; assay: Herbicidal post-emergence action, section E (Table E8); type: in vivo, Setaria viridis; conditions: application rate 320 g/ha; assessed visually after ca. 3 weeks
From the text: as §1

[38] = tested on: KCHSC; assay: Herbicidal pre-emergence action (Table A10); type: in vivo, Kochia scoparia; conditions: visual grading after ca. 3 weeks
How it was run: as §2

[39] = tested on: VIOTR; assay: Herbicidal post-emergence action, section E (Table E10); type: in vivo, Viola tricolor; conditions: application rate 320 g/ha; assessed visually after ca. 3 weeks
From the text: as §1

[40] = tested on: ABUTH; assay: Herbicidal post-emergence action, section E (Table E1); type: in vivo, Abutilon theophrasti; conditions: application rate 320 g/ha; assessed visually after ca. 3 weeks
From the text: as §1

[41] = tested on: AVEFA; assay: Herbicidal pre-emergence action, section C (Table C4); type: in vivo, Avena fatua; conditions: application rate 320 g/ha; visual grading after ca. 3 weeks
From the text: as §4

[42] = tested on: GLXMA; assay: Pre-emergence effects on crop plants (Table D4); type: in vivo, Glycine max; conditions: crop plant; application rate 80 g/ha; visual grading after ca. 3 weeks
[43] = tested on: ZEAMX; assay: Pre-emergence effects on crop plants (Table D1); type: in vivo, Zea mays; conditions: crop plant; application rate 80 g/ha; visual grading after ca. 3 weeks
[44] = tested on: ECHCG; assay: Herbicidal post-emergence action (Table B3); type: in vivo, Echinochloa crus-galli; conditions: application rate 1280 g/ha; rated visually after about 3 weeks
How it was run: as §3

[45] = tested on: TRZAS; assay: Pre-emergence effects on crop plants (Table D2); type: in vivo, Triticum aestivum; conditions: crop plant; application rate 80 g/ha; visual grading after ca. 3 weeks
From the text: (§5) Seeds of mono- and dicotyledonous weed plants and crop plants were sown, in plastic or organic planting pots, in sandy loam and covered with soil. The compounds according to the invention, formulated in the form of wettable powders (WP) or as emulsifiable concentrates (EC), were applied to the surface of the covering soil as aqueous suspension or emulsion, with the addition of 0.5% of an additive, at an application rate of 600 1 of water/ha (converted).
(§6) Following treatment, the pots were placed in a greenhouse and kept under optimum growth conditions for the test plants.

[46] = tested on: ORYZA; assay: Pre-emergence effects on crop plants (Table D3); conditions: crop plant; application rate 320 g/ha; visual grading after ca. 3 weeks
From the text: as §5, §6

[47] = tested on: ABUTH; assay: Herbicidal pre-emergence action, section C (Table C1); type: in vivo, Abutilon theophrasti; conditions: application rate 320 g/ha; visual grading after ca. 3 weeks

O=C1N(Cc2cccc(F)c2F)CCCC12CCCN(Cc1c(F)cccc1F)C2=O (racemic) [I-008, 8-[(2,3-difluorophenyl)methyl]-2-[(2,6-difluorophenyl)methyl]-2,8-diazaspiro[5.5]undecane-1,7-dione]
pre-emergence activity against ECHCG [1]: 100% | post-emergence activity against ORYZA ([2]; application rate 80 g/ha): 0% | pre-emergence activity against ALOMY [3]: 90% | pre-emergence activity against SETVI ([4]; application rate 320 g/ha): 100% | pre-emergence activity against STEME ([5]; application rate 320 g/ha): 90% | pre-emergence activity against MATIN ([6]; application rate 320 g/ha): 100% | pre-emergence activity against VERPE ([7]; application rate 320 g/ha): 90% | pre-emergence activity against MATIN [8]: 80% | post-emergence activity against LOLRI [9]: 100% | post-emergence activity against ALOMY [10]: 90% | pre-emergence activity against VIOTR ([11]; application rate 320 g/ha): 80% | post-emergence activity against AMARE [12]: 90% | pre-emergence activity against ECHCG [13]: 100% | post-emergence activity against VERPE [14]: 80% | pre-emergence activity against VERPE [15]: 80% | pre-emergence activity against SETVI ([16]; application rate 80 g/ha): 100% | post-emergence activity against ZEAMX ([17]; application rate 320 g/ha): 0% | pre-emergence activity against LOLRI [18]: 90% | post-emergence activity against ABUTH [19]: 90% | post-emergence activity against KCHSC [20]: 90% | post-emergence activity against SETVI [21]: 90% | pest or weed control at 320 g/ha ([22]; Poa annua, pre-emergence, 504 h, read-out: pre-emergence activity against POAAN): 100% | post-emergence activity against MATIN [23]: 90% | post-emergence activity against STEME [24]: 90% | post-emergence activity against LOLRI [25]: 90% | pre-emergence activity against ABUTH [26]: 90% | post-emergence activity against TRZAS ([27]; application rate 80 g/ha): 0% | pre-emergence activity against DIGSA ([28]; application rate 80 g/ha): 100% | post-emergence activity against POAAN ([29]; application rate 320 g/ha): 90% | post-emergence activity against ECHCG [30]: 90% | pest or weed control at 320 g/ha ([31]; Lolium rigidum, pre-emergence, 504 h, read-out: pre-emergence activity against LOLRI): 100% | pre-emergence activity against ALOMY [32]: 90% | post-emergence activity against BRSNW [33]: 0% | pre-emergence activity against DIGSA [34]: 100% | post-emergence activity against VERPE [35]: 90% | post-emergence activity against ALOMY [36]: 90% | post-emergence activity against SETVI [37]: 90% | pre-emergence activity against KCHSC ([38]; application rate 320 g/ha): 90%

O=C1N(Cc2ccccc2Cl)CCCC12CCN(Cc1cccc(F)c1F)C2=O (racemic) [I-035]
pre-emergence activity against ECHCG [1]: 100% | post-emergence activity against ORYZA ([2]; application rate 320 g/ha): 0% | pre-emergence activity against ALOMY [3]: 90% | pre-emergence activity against SETVI ([4]; application rate 1280 g/ha): 100% | pre-emergence activity against STEME ([5]; application rate 1280 g/ha): 90% | pre-emergence activity against MATIN ([6]; application rate 1280 g/ha): 90% | post-emergence activity against VIOTR [39]: 80% | pre-emergence activity against VERPE ([7]; application rate 1280 g/ha): 90% | post-emergence activity against ABUTH [40]: 90% | pre-emergence activity against AVEFA [41]: 100% | pre-emergence activity against VIOTR ([11]; application rate 80 g/ha): 90% | post-emergence activity against VERPE [14]: 80% | pre-emergence activity against VERPE [15]: 90% | pre-emergence activity against GLXMA [42]: 0% | pre-emergence activity against SETVI ([16]; application rate 320 g/ha): 100% | post-emergence activity against ZEAMX ([17]; application rate 80 g/ha): 0% | pre-emergence activity against LOLRI [18]: 90% | pre-emergence activity against ZEAMX [43]: 0% | pre-emergence activity against POAAN [22]: 100% | post-emergence activity against TRZAS ([27]; application rate 320 g/ha): 0% | post-emergence activity against ECHCG [44]: 90% | pre-emergence activity against TRZAS [45]: 0% | pre-emergence activity against ORYZA [46]: 0% | pre-emergence activity against DIGSA ([28]; application rate 320 g/ha): 100% | post-emergence activity against POAAN ([29]; application rate 1280 g/ha): 90% | pre-emergence activity against LOLRI [31]: 100% | pre-emergence activity against ALOMY [32]: 80% | pre-emergence activity against DIGSA [34]: 100% | pre-emergence activity against ABUTH [47]: 80% | pre-emergence activity against KCHSC ([38]; application rate 1280 g/ha): 90%
